Measurements: US20230382863A1, “MEK INHIBITORS AND USES THEREOF” (Ikena Oncology, Inc., priority 2022, published 2023)

Tests used:
[1] = tested on: SKM-1 xenograft (KRAS K117N); assay: In vivo efficacy, SKM-1 xenograft model; set-up: species or system mouse; settings: SKM-1 model, Day 22
Protocol: (§1) The antitumor activity of exemplary MEK inhibitor compounds is evaluated in vivo using human cell line derived xenografts (CDX) grown in immunodeficient mice. For these studies, AsPC1 (pancreatic cell line with KRAS G12D mutation), NCI-H2122 (lung cell line with KRAS G12C mutation), and 5637 (bladder cell line with CRAF amplification) models are used. In addition, HCT-116 (colorectal cell line with KRAS G13D mutation), SKM-1 (AML cell line with KRAS K117N mutation), and OCI-AML-3 (AML cell line with NRAS Q61L mutation) models are used. The tumor cell lines (AsPC-1, NCI-H2122, 5637, and HCT-116 cells) are maintained in vitro as monolayer culture in medium at 37° C. in an atmosphere of 5% CO2 in air. The tumor cell lines (SKM-1 and OCI-AML-3 cells) are maintained in vitro as a suspension in medium at 37° C. in an atmosphere of 5% CO2 in air. The tumor cells are routinely sub-cultured before confluence by trypsin-EDTA treatment, not to exceed 4-5 passages. The cells growing in an exponential growth phase are harvested for tumor inoculation. AsPC1, NCI-H2122, and OCI-AML-3 tumors are implanted into Balb/c nude mice. HCT-116 tumors are implanted into Nu/Nu mice. 5637 and SKM-1 tumors are implanted into NOG mice. Each mouse is inoculated subcutaneously on the right flank with tumor cells in a 1:1 mixture with matrigel. Tumors are allowed to grow to approximately 150-200 mm^3. At this time, mice are assigned to groups such that the mean tumor volume is the same for each treatment group. The MEK inhibitor compound treatments are administrated to the tumor-bearing mice via oral gavage. Throughout the study, mouse body weight and tumor volume are recorded. The measurement of tumor size is conducted twice weekly with a caliper and recorded. The tumor volume (mm^3) is estimated using the formula: TV=a×b^2/2, where “a” and “b” are long and short diameters of a tumor, respectively.

[2] = tested on: AsPC1 xenograft (KRAS G12D); assay: In vivo efficacy, AsPC-1 xenograft model; set-up: species or system mouse; settings: AsPC-1 model, 3 mg/kg QD, Day 21
Protocol: (§2) The antitumor activity of exemplary MEK inhibitor compounds is evaluated in vivo using human cell line derived xenografts (CDX) grown in immunodeficient mice. For these studies, AsPC1 (pancreatic cell line with KRAS G12D mutation), NCI-H2122 (lung cell line with KRAS G12C mutation), and 5637 (bladder cell line with CRAF amplification) models are used. In addition, HCT-116 (colorectal cell line with KRAS G13D mutation), SKM-1 (AML cell line with KRAS K117N mutation), and OCI-AML-3 (AML cell line with NRAS Q61L mutation) models are used. The tumor cell lines (AsPC-1, NCI-H2122, 5637, and HCT-116 cells) are maintained in vitro as monolayer culture in medium at 37° C. in an atmosphere of 5% CO2 in air. The tumor cell lines (SKM-1 and OCI-AML-3 cells) are maintained in vitro as a suspension in medium at 37° C. in an atmosphere of 5% CO2 in air. The tumor cells are routinely sub-cultured before confluence by trypsin-EDTA treatment, not to exceed 4-5 passages. The cells growing in an exponential growth phase are harvested for tumor inoculation. AsPC1, NCI-H2122, and OCI-AML-3 tumors are implanted into Balb/c nude mice. HCT-116 tumors are implanted into Nu/Nu mice. 5637 and SKM-1 tumors are implanted into NOG mice. […] Throughout the study, mouse body weight and tumor volume are recorded. The measurement of tumor size is conducted twice weekly with a caliper and recorded. […]

[3] = tested on: OCI-AML-3 xenograft (NRAS Q61L); assay: In vivo efficacy, OCI-AML-3 xenograft model; set-up: species or system mouse; settings: OCI-AML-3 model, Day 15
Protocol: as §1

[4] = tested on: Phosphorylation of MEK1/2 in AsPC1 cells; assay: 4 hour pMEK1/2 MSD Assay; type: cell-based; settings: Homo sapiens; AsPC1, 4 hours; read-out: pMEK IC50
Protocol: AsPC1 cells were seeded at 10,000 cells/well overnight in 96-well plates, then treated with a 12-point dose response of compounds (Starting dose of 1000 nM and 3-fold dilution) for 4 hours. AsPC1 cells are a K-Ras mutant (G12D) pancreatic cancer cell line. Phosphorylation of MEK1/2 on residues Ser217 and Ser221 were detected using a MesoScale Discovery (MSD) assay (MSD Cat #K15129D-2). MEK1/2 phosphorylation levels were normalized to total MEK1/2 protein detected in each well on the same MSD plate. IC50 values were determined by fitting a variable slope, four parameters curve to the compound concentration to normalized Phospho-MEK1/2 relationship.

[5] = tested on: NCI-H2122 xenograft (KRAS G12C); assay: In vivo efficacy, NCI-H2122 xenograft model; set-up: species or system mouse; settings: 3 mg/kg QD, Day 31
Protocol: as §2

CRAF in complex with MEK = assay: CRAF-MEK stabilization in cells (MEK immunoprecipitation, Western); type: cell-based; settings: HCT-116 and NCI-H1666 cells, 3 nM, 4 hours
Source text: The stabilization of ARAF, BRAF and CRAF in complex with MEK in MEK immunoprecipitates isolated from cellular lysates. For these studies, HCT-116 (colorectal cell line with KRAS G13D mutation), SKMEL-2 (melanoma cell line with NRAS Q61K mutation), HT-29 (colorectal cell line with BRAF Class I mutation), NCI-H1755 (lung cancer cell line with BRAF Class II mutation), and NCI-H1666 (lung cancer cell line with BRAF Class III mutation) models are used. The tumor cell lines are maintained in vitro as monolayer culture in medium at 37° C. in an atmosphere of 5% CO2 in air. Cell lines are treated with exemplary MEK inhibitors at a concentration of 3 nM for 4 hours. Cells are lysed and MEK is immunoprecipitated from the lysates overnight. Denatured immunoprecipitates are run on SDS-PAGE, transferred to nitrocellulose membranes and associated ARAF, BRAF, or CRAF are detected by Western analysis. Stabilization was defined as >1.5-fold induction of RAF-MEK interaction over vehicle control.

weight gain ([1]; 1 mg/kg QD): 1.2%
weight gain ([1]; 6 mg/kg QOD): 3.9%
weight gain ([3]; 6 mg/kg QOD): 3.3%
IC50 [4]: < 0.1 µM
Structure (SMILES): CNS(=O)(=O)Nc1cccc(Oc2c(C(=O)NC3CC3)c(Nc3ccc(I)cc3F)n(C)c(=O)c2C)c1Cl [Compound I-2, 4-(2-chloro-3-((N-methylsulfamoyl)amino)phenoxy)-N-cyclopropyl-2-((2-fluoro-4-iodophenyl)amino)-1,5-dimethyl-6-oxo-1,6-dihydropyridine-3-carboxamide]
percent TGI ([1]; 1 mg/kg QD): 97.7%
average body weight loss ([1]; 3 mg/kg QD): 1.2%
percent TGI ([1]; 6 mg/kg QOD): 96.2%
average body weight gain [2]: 2.4%
percent TGI (tumor growth inhibition) [2]: 83.4%
average body weight loss ([3]; 1 mg/kg QD): 2.9%
percent TGI ([3]; 1 mg/kg QD): 94.8%
average body weight loss ([3]; 3 mg/kg QD): 7.8%
percent TGI ([3]; 3 mg/kg QD): 98.6%
percent TGI ([3]; 6 mg/kg QOD): 95.2%
average body weight loss [5]: 1.5%
percent TGI [5]: 104%
MEK inhibitor-induced MEK-CRAF stabilization (CRAF in complex with MEK): stabilization was observed
